Source: ChEMBL document CHEMBL1201862, “PubChem BioAssay data set” (2004)
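Growth conditions: 96-well plates. Treatment: test compound, 48 hours, 5 concentrations. Analysis: linear interpolation between bracketing concentrations; unreached endpoints set to highest concentration. GI50: concentration for 50% inhibition of growth.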 Calls of active or inactive are those of the source. No stated cut-off is given here; in the data, active = GI50 up to about 1.1 µM and inactive = higher.

Assays:
Assay in all cases: NCI tumour cell line growth inhibition, 48 h
SR = test system: SR
SNB-19 = test system: SNB-19
SNB-78 = test system: SNB-78
OVCAR-3 = test system: OVCAR-3
M14 = test system: M14
IGROV-1 = test system: IGROV-1
SF-268 = test system: SF-268
MOLT-4 = test system: MOLT-4
OVCAR-4 = test system: OVCAR-4
HCC 2998 = test system: HCC 2998
K562 = test system: K562
UACC-62 = test system: UACC-62
KM-20L2 = test system: KM-20L2
SK-MEL-28 = test system: SK-MEL-28
SF-295 = test system: SF-295
HCT-15 = test system: HCT-15
TK-10 = test system: TK-10
HOP-62 = test system: HOP-62
HT-29 = test system: HT-29
RPMI-8226 = test system: RPMI-8226
SK-MEL-5 = test system: SK-MEL-5
Malme-3M = test system: Malme-3M
DMS-114 = test system: DMS-114
HCT-116 = test system: HCT-116
SK-OV-3 = test system: SK-OV-3
EKVX = test system: EKVX
NCI-H23 = test system: NCI-H23
HOP-92 = test system: HOP-92
OVCAR-8 = test system: OVCAR-8
RXF 393 = test system: RXF 393
UO-31 = test system: UO-31
M19-MEL = test system: M19-MEL
HOP-18 = test system: HOP-18
COLO 205 = test system: COLO 205
CAKI-1 = test system: CAKI-1
KM12 = test system: KM12
DLD-1 = test system: DLD-1
HL-60 = test system: HL-60
SF-539 = test system: SF-539
U-251 = test system: U-251
SK-MEL-2 = test system: SK-MEL-2
A498 = test system: A498
UACC-257 = test system: UACC-257
OVCAR-5 = test system: OVCAR-5
NCI-H460 = test system: NCI-H460
786-0 = test system: 786-0
LOX IMVI = test system: LOX IMVI
NCI-H522 = test system: NCI-H522
XF498 = test system: XF498
SN12C = test system: SN12C
A549 = test system: A549
LXFL 529 = test system: LXFL 529
SW-620 = test system: SW-620
CCRF-CEM = test system: CCRF-CEM
ACHN = test system: ACHN

O=C1OCc2cccc3c2-c2c1cccc2C(=O)OC3
GI50 (SR): > 100 µM (inactive) | GI50 (SNB-19): > 100 µM (inactive) | GI50 (SNB-78): > 100 µM (inactive) | GI50 (OVCAR-3): > 100 µM (inactive) | GI50 (M14): > 100 µM (inactive) | GI50 (IGROV-1): > 100 µM (inactive) | GI50 (SF-268): > 100 µM (inactive) | GI50 (MOLT-4): > 100 µM (inactive) | GI50 (OVCAR-4): > 100 µM (inactive) | GI50 (HCC 2998): > 100 µM (inactive) | GI50 (K562): > 100 µM (inactive) | GI50 (UACC-62): > 100 µM (inactive) | GI50 (KM-20L2): > 100 µM (inactive) | GI50 (SK-MEL-28): > 100 µM (inactive) | GI50 (SF-295): > 100 µM (inactive) | GI50 (HCT-15): > 100 µM | GI50 (TK-10): > 100 µM (inactive) | GI50 (HOP-62): > 100 µM (inactive) | GI50 (HT-29): > 100 µM (inactive) | GI50 (RPMI-8226): > 100 µM (inactive) | GI50 (SK-MEL-5): > 100 µM (inactive) | GI50 (Malme-3M): > 100 µM (inactive) | GI50 (DMS-114): > 100 µM (inactive) | GI50 (HCT-116): > 100 µM (inactive) | GI50 (SK-OV-3): > 100 µM (inactive) | GI50 (EKVX): > 100 µM (inactive) | GI50 (NCI-H23): > 100 µM (inactive) | GI50 (HOP-92): 38.5 µM (inactive) | GI50 (OVCAR-8): > 100 µM (inactive) | GI50 (RXF 393): > 100 µM (inactive) | GI50 (UO-31): > 100 µM (inactive) | GI50 (M19-MEL): > 100 µM (inactive) | GI50 (HOP-18): > 100 µM (inactive) | GI50 (COLO 205): > 100 µM (inactive) | GI50 (CAKI-1): > 100 µM (inactive) | GI50 (KM12): > 100 µM (inactive) | GI50 (DLD-1): > 100 µM (inactive) | GI50 (HL-60): > 100 µM (inactive) | GI50 (SF-539): > 100 µM (inactive) | GI50 (U-251): > 100 µM (inactive) | GI50 (SK-MEL-2): > 100 µM (inactive)

CC1=NN(C(=O)c2ccc(Cl)cc2)C(=O)/C1=C/c1c(O)cc(O)c2ccccc12
GI50 (A498): > 100 µM (inactive) | GI50 (UACC-257): > 100 µM (inactive) | GI50 (SNB-19): > 100 µM (inactive) | GI50 (OVCAR-5): > 100 µM (inactive) | GI50 (NCI-H460): > 100 µM (inactive) | GI50 (786-0): > 100 µM (inactive) | GI50 (SNB-78): > 100 µM (inactive) | GI50 (OVCAR-3): > 100 µM (inactive) | GI50 (LOX IMVI): > 100 µM (inactive) | GI50 (M14): > 100 µM (inactive) | GI50 (IGROV-1): > 100 µM (inactive) | GI50 (SF-268): > 100 µM (inactive) | GI50 (MOLT-4): > 100 µM (inactive) | GI50 (OVCAR-4): > 100 µM (inactive) | GI50 (HCC 2998): > 100 µM (inactive) | GI50 (K562): > 100 µM (inactive) | GI50 (UACC-62): > 100 µM (inactive) | GI50 (NCI-H522): > 100 µM (inactive) | GI50 (KM-20L2): > 100 µM (inactive) | GI50 (SK-MEL-28): > 100 µM (inactive) | GI50 (XF498): > 100 µM (inactive) | GI50 (SN12C): > 100 µM (inactive) | GI50 (SF-295): > 100 µM (inactive) | GI50 (TK-10): > 100 µM (inactive) | GI50 (HOP-62): > 100 µM (inactive) | GI50 (A549): > 100 µM (inactive) | GI50 (HT-29): > 100 µM (inactive) | GI50 (RPMI-8226): > 100 µM (inactive) | GI50 (SK-MEL-5): > 100 µM (inactive) | GI50 (LXFL 529): > 100 µM (inactive) | GI50 (Malme-3M): > 100 µM (inactive) | GI50 (SW-620): > 100 µM (inactive) | GI50 (DMS-114): > 100 µM (inactive) | GI50 (HCT-116): > 100 µM (inactive) | GI50 (SK-OV-3): > 100 µM (inactive) | GI50 (EKVX): > 100 µM (inactive) | GI50 (NCI-H23): > 100 µM (inactive) | GI50 (HOP-92): > 100 µM (inactive) | GI50 (OVCAR-8): > 100 µM (inactive) | GI50 (RXF 393): > 100 µM (inactive) | GI50 (UO-31): > 100 µM (inactive) | GI50 (M19-MEL): > 100 µM (inactive) | GI50 (CCRF-CEM): > 100 µM (inactive) | GI50 (COLO 205): > 100 µM (inactive) | GI50 (CAKI-1): > 100 µM (inactive) | GI50 (KM12): > 100 µM (inactive) | GI50 (DLD-1): > 100 µM (inactive) | GI50 (HL-60): > 100 µM (inactive) | GI50 (ACHN): > 100 µM (inactive) | GI50 (SF-539): > 100 µM (inactive) | GI50 (U-251): > 100 µM (inactive) | GI50 (SK-MEL-2): > 100 µM (inactive)
